# From the supplement of paper PMC11061612
# Experiments:
# [1] = compound: C1CC(C1)(C(=O)[O-])C(=O)[O-].N.N.[Pt+2] [Carboplatin]; conditions: max 10 µM
# Outline: (§1)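 Cancer cell lines were plated in 1536-well plates in 7.5 μl of DMEM/F12 or RPMI with 10% FBS and kept 24 hours at 37°C and 5% CO2 before 72 hours of dosing, with final DMSO typically 0.2%. CellTiter-Glo 2.0 luminescence measured viability, scaled between blank-well and DMSO-well means. Dose responses were fitted to a two-parameter logistic curve with a non-linear mixed effects model. This fit gives the single-agent IC50.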
# [2] = compound: C1CN(CCC1(C(=O)N[C@@H](CCO)C2=CC=C(C=C2)Cl)N)C3=NC=NC4=C3C=CN4 [AZD5363]; conditions: max 10 µM
# Outline: as §1
# [3] = compound: C=CCn1c(=O)c2cnc(Nc3ccc(N4CCN(C)CC4)cc3)nc2n1-c1cccc(C(C)(C)O)n1 [AZD1775]; conditions: max 3 µM
# Outline: as §1
# [4] = compound: CC(=O)Nc1cccc(-n2c(=O)n(C3CC3)c(=O)c3c(Nc4ccc(I)cc4F)n(C)c(=O)c(C)c32)c1 [Trametinib]; conditions: max 1 µM
# Outline: as §1
# [5] = compound: CC(=O)O[C@H]1C(=O)[C@@]2(C)[C@H]([C@H](OC(=O)c3ccccc3)[C@]3(O)C[C@H](OC(=O)[C@H](O)[C@@H](NC(=O)c4ccccc4)c4ccccc4)C(C)=C1C3(C)C)[C@]1(OC(C)=O)CO[C@@H]1C[C@@H]2O [Paclitaxel]; conditions: max 3 µM
# Outline: as §1
# [6] = compound: CC(=O)c1c(C)c2cnc(Nc3ccc(N4CCNCC4)cn3)nc2n(C2CCCC2)c1=O [Palbociclib]; conditions: max 10 µM
# Outline: as §1
# [7] = compound: CC(C)n1c(=O)n(C)c2cnc3cc(F)c(-c4ccc(OCCCN5CCCCC5)nc4)cc3c21 [AZD1390]; conditions: max 0.3 µM
# Outline: as §1
# [8] = compound: CC1(C)CCC(CN2CCN(c3ccc(C(=O)NS(=O)(=O)c4ccc(NCC5CCOCC5)c([N+](=O)[O-])c4)c(Oc4cnc5[nH]ccc5c4)c3)CC2)=C(c2ccc(Cl)cc2)C1 [Venetoclax]; conditions: max 1 µM
# Outline: as §1
# [9] = compound: CC1=C(C(=CC=C1)Cl)NC(=O)C2=CN=C(S2)NC3=CC(=NC(=N3)C)N4CCN(CC4)CCO [Dasatinib]; conditions: max 2 µM
# Outline: as §1
# [10] = compound: CC1=CN2[C@@H](C1)C=NC3=CC(=C(C=C3C2=O)OC)OCCCCCOC4=C(C=C5C(=C4)N=C[C@@H]6CC(=CN6C5=O)C)OC [SG3199]; conditions: max 0.001 µM
# Outline: as §1
# [11] = compound: CCN(CCO)CCCOc1ccc2c(Nc3cc(CC(=O)Nc4cccc(F)c4)[nH]n3)ncnc2c1 [AZD2811]; conditions: max 1 µM
# Outline: as §1
# [12] = compound: CCc1c2c(nc3ccc(O)cc13)-c1cc3c(c(=O)n1C2)COC(=O)[C@]3(O)CC [SN-38]; conditions: max 0.3 µM
# Outline: as §1
# [13] = compound: CN(C)CCCOc1ccc(-c2ccc3ncc4c(c3c2)n(C2CCOCC2)c(=O)n4C)cn1 [AZD0156]; conditions: max 3 µM
# Outline: as §1
# [14] = compound: CN(CC[C@H](CSC1=CC=CC=C1)NC2=C(C=C(C=C2)S(=O)(=O)NC(=O)C3=CC=C(C=C3)N4CCC(CC4)[C@H](C5=CC=CC=C5C6=CC=C(C=C6)Cl)O)S(=O)(=O)C(F)(F)F)CCO [AZD4320]; conditions: max 1 µM
# Outline: as §1
# [15] = compound: COc1cc(Nc2ncc3c(n2)-c2ccc(Cl)cc2C(c2c(F)cccc2OC)=NC3)ccc1C(=O)O [Alisertib]; conditions: max 10 µM
# Outline: as §1
# [16] = compound: COc1cc([C@@H]2c3cc4c(cc3[C@@H](O[C@@H]3O[C@@H]5CO[C@@H](C)O[C@H]5[C@H](O)[C@H]3O)[C@H]3COC(=O)[C@H]23)OCO4)cc(OC)c1O [Etoposide]; conditions: max 10 µM
# Outline: as §1
# [17] = compound: COc1cc2ncnc(Nc3ccc(F)c(Cl)c3)c2cc1OCCCN1CCOCC1 [Gefitinib]; conditions: max 10 µM
# Outline: as §1
# [18] = compound: COc1cccc(OCCCN)c1-c1cc(Nc2cnc(C#N)cn2)n[nH]1 [Prexasertib]; conditions: max 1 µM
# Outline: as §1
# [19] = compound: COc1cccc2c1C(=O)c1c(O)c3c(c(O)c1C2=O)C[C@@](O)(C(=O)CO)C[C@@H]3O[C@H]1C[C@H](N)[C@H](O)[C@H](C)O1 [Doxorubicin]; conditions: max 1 µM
# Outline: as §1
# [20] = compound: COc1nnc2ccc(N3CCC(c4ccc(OCCN5CCN(C)C(=O)[C@H]5C)cc4)CC3)nn12 [AZD5153]; conditions: max 1 µM
# Outline: as §1
# [21] = compound: CS(=O)(=O)CCNCc1ccc(-c2ccc3ncnc(Nc4ccc(OCc5cccc(F)c5)c(Cl)c4)c3c2)o1 [Lapatinib]; conditions: max 10 µM
# Outline: as §1
# [22] = compound: C[C@@H](Nc1cc(F)cc(F)c1)c1cc(C(=O)N(C)C)cc2c(=O)cc(N3CCOCC3)oc12 [AZD8186]; conditions: max 10 µM
# Outline: as §1
# [23] = compound: C[C@@H](Oc1cc(-c2cnn(C3CCNCC3)c2)cnc1N)c1c(Cl)ccc(F)c1Cl [Crizotinib]; conditions: max 10 µM
# Outline: as §1
# [24] = compound: C[C@@H](c1ccc2nccn2c1)n1nnc2ncc(-c3cnn(C)c3)nc21 [Savolitinib]; conditions: max 1 µM
# Outline: as §1
# [25] = compound: C[C@@H]1COCCN1C2=NC(=NC(=C2)C3(CC3)[S@](=N)(=O)C)C4=C5C=CNC5=NC=C4 [AZD6738]; conditions: max 10 µM
# Outline: as §1
# [26] = compound: Cc1c2c(nn1C)CSCc1cc(n(C)n1)CSc1cc(c3ccccc3c1)OCCCc1c(C(=O)O)n(C)c3c-2c(Cl)ccc13 [AZD5991]; conditions: max 1 µM
# Outline: as §1
# [27] = compound: Cc1cc2ncnn2cc1Nc1ncc2c(n1)n(C1CCOCC1)c(=O)n2C [AZD7648]; conditions: max 10 µM
# Outline: as §1
# [28] = compound: Cc1nc(-c2cn3c(n2)-c2ccc(-c4cnn(C(C)(C)C(N)=O)c4)cc2OCC3)n(C(C)C)n1 [Taselisib]; conditions: max 10 µM
# Outline: as §1
# [29] = compound: Cn1cnc2c(F)c(Nc3ccc(Br)cc3Cl)c(C(=O)NOCCO)cc21 [Selumetinib]; conditions: max 10 µM
# Outline: as §1
# [30] = compound: N#Cc1cnc(Nc2cc(NC[C@H]3CNCCO3)c(C(F)(F)F)cn2)cn1 [SRA737]; conditions: max 10 µM
# Outline: as §1
# [31] = compound: NC1(c2ccc(-c3nc4ccn5c(=O)[nH]nc5c4cc3-c3ccccc3)cc2)CCC1 [MK-2206]; conditions: max 10 µM
# Outline: as §1
# [32] = compound: Nc1ccn([C@@H]2O[C@H](CO)[C@@H](O)C2(F)F)c(=O)n1 [Gemcitabine]; conditions: max 0.3 µM
# Outline: as §1
# [33] = compound: O=C(Nc1ccc2[nH]nc(-c3ccncc3)c2c1)[C@@H]1CCN(CC(=O)N2CCN(c3ccc(-c4ncccn4)cc3)CC2)C1; conditions: max 5 µM
# Outline: as §1
# [34] = compound: O=C(c1cc(Cc2n[nH]c(=O)c3ccccc23)ccc1F)N1CCN(C(=O)C2CC2)CC1 [Olaparib]; conditions: max 10 µM
# Outline: as §1
# [35] = compound: O=c1[nH]cc(F)c(=O)[nH]1 [5-Fluorouracil]; conditions: max 20 µM
# Outline: as §1
cell line,measurement,setting,value
D-263MG (Glioblastoma),"IC50, cell viability 72 h",[1],> 10 µM
same,"IC50, cell viability 72 h",[2],> 10 µM
same,"IC50, cell viability 72 h",[3],2.49 µM
same,"IC50, cell viability 72 h",[4],> 1 µM
same,"IC50, cell viability 72 h",[5],0.0761 µM
same,"IC50, cell viability 72 h",[6],> 10 µM
same,"IC50, cell viability 72 h",[7],> 0.3 µM
same,"IC50, cell viability 72 h",[8],> 1 µM
same,"IC50, cell viability 72 h",[9],> 2 µM
same,"IC50, cell viability 72 h",[10],> 0.001 µM
same,"IC50, cell viability 72 h",[11],> 1 µM
same,"IC50, cell viability 72 h",[12],0.114 µM
same,"IC50, cell viability 72 h",[13],> 3 µM
same,"IC50, cell viability 72 h",[14],> 1 µM
same,"IC50, cell viability 72 h",[15],7.08 µM
same,"IC50, cell viability 72 h",[16],> 10 µM
same,"IC50, cell viability 72 h",[17],> 10 µM
same,"IC50, cell viability 72 h",[18],0.125 µM
same,"IC50, cell viability 72 h",[19],0.858 µM
same,"IC50, cell viability 72 h",[20],> 1 µM
same,"IC50, cell viability 72 h",[21],> 10 µM
same,"IC50, cell viability 72 h",[22],> 10 µM
same,"IC50, cell viability 72 h",[23],> 10 µM
same,"IC50, cell viability 72 h",[24],> 1 µM
same,"IC50, cell viability 72 h",[25],7.85 µM
same,"IC50, cell viability 72 h",[26],> 1 µM
same,"IC50, cell viability 72 h",[27],> 10 µM
same,"IC50, cell viability 72 h",[28],> 10 µM
same,"IC50, cell viability 72 h",[29],> 10 µM
same,"IC50, cell viability 72 h",[30],> 10 µM
same,"IC50, cell viability 72 h",[31],> 10 µM
same,"IC50, cell viability 72 h",[32],> 0.3 µM
same,"IC50, cell viability 72 h",[33],> 5 µM
same,"IC50, cell viability 72 h",[34],> 10 µM
same,"IC50, cell viability 72 h",[35],> 20 µM
